Measured values taken from ChEMBL document CHEMBL1127157, “Synthesis and biological activity of 2-desamino and 4-deoxy analogs of 5,10-dideazatetrahydrofolic acid (DDATHF)” (Bioorg Med Chem Lett, 1993).
Converted amounts (≈) assume the structure as drawn.

Tests used:
CCRF-CEM = assay: Tested for the growth inhibition of CCRF-CEM, a human T-cell derived lymphoblastic leukemic cell line; assay type: functional, cell-based
[1] = molecular target: T1, Trifunctional purine biosynthetic protein adenosine-3 (Homo sapiens, UniProt P22102); assay: Tested for the inhibition of recombinant human monofunctional Glycinamide ribonucleotide formyltransferase
T1 sequence (P22102 whole entry): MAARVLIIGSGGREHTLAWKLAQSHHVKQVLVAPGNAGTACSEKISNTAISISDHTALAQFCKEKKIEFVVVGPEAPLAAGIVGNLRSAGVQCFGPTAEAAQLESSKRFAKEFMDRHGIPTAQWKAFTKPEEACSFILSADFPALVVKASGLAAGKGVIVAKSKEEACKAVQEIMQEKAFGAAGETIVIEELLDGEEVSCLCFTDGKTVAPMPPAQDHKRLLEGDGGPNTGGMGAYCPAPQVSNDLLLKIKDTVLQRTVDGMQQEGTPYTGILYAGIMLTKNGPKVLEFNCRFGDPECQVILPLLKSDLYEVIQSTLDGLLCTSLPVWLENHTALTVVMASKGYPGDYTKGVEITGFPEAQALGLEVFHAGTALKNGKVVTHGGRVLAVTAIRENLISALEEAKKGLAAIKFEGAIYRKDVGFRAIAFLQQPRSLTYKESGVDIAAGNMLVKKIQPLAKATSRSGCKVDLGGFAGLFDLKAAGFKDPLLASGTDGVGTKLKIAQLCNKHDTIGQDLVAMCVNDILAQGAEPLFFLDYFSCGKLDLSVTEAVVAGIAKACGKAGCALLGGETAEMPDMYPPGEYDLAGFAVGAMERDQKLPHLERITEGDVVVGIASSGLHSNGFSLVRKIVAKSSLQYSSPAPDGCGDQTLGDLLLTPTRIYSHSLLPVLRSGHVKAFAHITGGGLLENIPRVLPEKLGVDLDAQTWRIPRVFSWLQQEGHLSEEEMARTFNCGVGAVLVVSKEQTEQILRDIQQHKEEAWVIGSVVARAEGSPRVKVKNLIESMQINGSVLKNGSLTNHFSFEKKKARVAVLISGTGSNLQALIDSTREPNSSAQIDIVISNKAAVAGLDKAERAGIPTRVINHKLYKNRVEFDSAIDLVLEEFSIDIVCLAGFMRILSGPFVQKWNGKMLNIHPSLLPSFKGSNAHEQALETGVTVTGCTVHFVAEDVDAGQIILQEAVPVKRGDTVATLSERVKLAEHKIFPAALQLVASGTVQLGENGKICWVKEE

[2] = molecular target: T2, Trifunctional purine biosynthetic protein adenosine-3 (Mus musculus, UniProt Q64737); assay: Tested for the inhibition of trifunctional Glycinamide ribonucleotide formyltransferase isolated from murine L1210 cells.; assay type: functional
T2 sequence (Q64737 whole entry): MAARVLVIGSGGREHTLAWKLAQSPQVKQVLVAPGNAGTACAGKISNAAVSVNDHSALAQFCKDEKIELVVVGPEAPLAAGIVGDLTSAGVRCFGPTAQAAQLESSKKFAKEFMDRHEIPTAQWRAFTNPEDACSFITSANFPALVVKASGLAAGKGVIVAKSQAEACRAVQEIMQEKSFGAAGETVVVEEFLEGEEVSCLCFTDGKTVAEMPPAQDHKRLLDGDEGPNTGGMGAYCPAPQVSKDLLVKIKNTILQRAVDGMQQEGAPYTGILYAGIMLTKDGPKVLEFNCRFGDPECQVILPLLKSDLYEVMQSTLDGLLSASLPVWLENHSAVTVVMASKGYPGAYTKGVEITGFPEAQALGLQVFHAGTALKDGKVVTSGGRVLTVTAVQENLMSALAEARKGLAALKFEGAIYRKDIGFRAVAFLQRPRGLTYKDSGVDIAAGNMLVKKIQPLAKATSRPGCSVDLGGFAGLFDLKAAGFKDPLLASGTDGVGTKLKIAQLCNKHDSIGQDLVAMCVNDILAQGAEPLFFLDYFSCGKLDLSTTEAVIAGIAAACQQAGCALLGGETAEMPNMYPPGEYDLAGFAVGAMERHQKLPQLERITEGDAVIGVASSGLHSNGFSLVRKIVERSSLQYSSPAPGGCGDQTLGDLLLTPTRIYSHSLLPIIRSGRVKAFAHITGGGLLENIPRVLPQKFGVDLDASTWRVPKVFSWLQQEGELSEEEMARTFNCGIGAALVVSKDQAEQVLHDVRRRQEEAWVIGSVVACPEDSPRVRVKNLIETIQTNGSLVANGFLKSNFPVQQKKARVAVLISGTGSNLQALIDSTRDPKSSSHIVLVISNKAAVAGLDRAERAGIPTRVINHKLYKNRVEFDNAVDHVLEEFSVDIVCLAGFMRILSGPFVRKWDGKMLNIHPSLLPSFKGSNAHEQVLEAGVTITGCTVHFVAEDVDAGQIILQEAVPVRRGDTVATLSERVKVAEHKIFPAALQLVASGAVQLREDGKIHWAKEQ

O=C(O)CC[C@H](NC(=O)c1ccc(CCC2CNc3ncnc(O)c3C2)cc1)C(=O)O (stereo partly specified)
IC50 (CCRF-CEM): > 20000 ng/mL
Ki [1]: 82.1 µM
Ki [2]: 27 µM

Nc1ncc2c(n1)NCC(CCc1ccc(C(=O)N[C@@H](CCC(=O)O)C(=O)O)cc1)C2 (stereo partly specified)
IC50 (CCRF-CEM): 4 ng/mL (≈ 9.36 nM)
Ki [1]: 186 µM

Nc1nc2c(c(=O)[nH]1)C[C@@H](CCc1ccc(C(=O)N[C@@H](CCC(=O)O)C(=O)O)cc1)CN2 [LOMETREXOL]
Ki [2]: 0.12 µM
